From patent US20050267182A1, “Urea derivatives as FLT-3 modulators” (Ambit Biosciences Corporation, priority 2003, published 2005)
Each block holds one compound with its values, some of them ahead of it.

Legend:
FLT3 = biological target: T1, FLT3 (Homo sapiens, UniProt P36888); assay: Binding constant (Kd) measurement, phage-displayed kinase competition binding assay; details: for Binding Assay: FLT3(DKIN): FLT3(DKIN) construct; for Binding Assay: FLT3(JMminus): FLT3(JMminus) construct
T1 construct: FLT3(DKIN); made in house
T1 sequence (P36888 610-943 limits assumed): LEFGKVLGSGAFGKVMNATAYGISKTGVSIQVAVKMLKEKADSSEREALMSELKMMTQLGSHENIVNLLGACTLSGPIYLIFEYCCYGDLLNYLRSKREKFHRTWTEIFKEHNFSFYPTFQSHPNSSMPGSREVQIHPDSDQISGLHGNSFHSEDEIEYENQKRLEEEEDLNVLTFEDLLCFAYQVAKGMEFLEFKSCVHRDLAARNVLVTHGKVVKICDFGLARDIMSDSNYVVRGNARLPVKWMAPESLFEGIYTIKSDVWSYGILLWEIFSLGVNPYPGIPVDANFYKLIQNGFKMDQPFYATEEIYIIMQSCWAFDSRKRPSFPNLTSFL
Excerpt: Binding Constant (Kd) Measurements for Small-Molecule-Kinase Interactions
The term “ND” represents non-determined values.

CS0002 = assay: Cell Assay: CS0002; format: cell-based; details: cell assay code CS0002
MV4,11 cells = assay: FLT3 assay using MV4,11 cells (cellular proliferation, MTS); format: cell-based, human; details: cell assay code CS0001
Outline: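 MV4,11 AML cells, […] switch to DMEM/10% FBS overnight, plated at 10,000 cells/well and exposed to serially diluted compounds in duplicate for 3 days at 37° C., 5% CO2. Proliferation read by MTS added for 2 h.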

SMILES: CC(C)(C)c1cc(NC(=O)Nc2ccc(Nc3cc(N)nc(N)n3)cc2)no1 [Compound O7]
Binding Assay: FLT3(JMminus) (FLT3): + + + +
Cell Assay: CS0001:IC50 (MV4,11 cells): + + + +
IC50 (CS0002): > 10 µM

SMILES: COc1cc(OC)nc(N(C)c2cccc(C(=O)Nc3ccc(NC(=O)Nc4ccon4)cc3)c2)n1 [Compound N53]
Binding Assay: FLT3(DKIN) (FLT3): + + + +
Cell Assay: CS0001:IC50 (MV4,11 cells): + + +
Cell Assay: CS0002:IC50 (CS0002): + +

SMILES: CC(C)(C)c1cc(NC(=O)Nc2ccc([N+](=O)[O-])cc2)no1 [Compound A21]
Binding Assay: FLT3(JMminus) (FLT3): + + +
Cell Assay: CS0001:IC50 (MV4,11 cells): + + +
Cell Assay: CS0002:IC50 (CS0002): + +

SMILES: CC(C)(C)c1cc(NC(=O)Nc2ccc3c(c2)OCO3)no1 [Compound A56]
Binding Assay: FLT3(JMminus) (FLT3): + + +
Cell Assay: CS0001:IC50 (MV4,11 cells): + + +
IC50 (CS0002): > 10 µM

SMILES: COC(=O)c1cccc(Sc2ncc(NC(=O)Nc3cc(C(C)(C)C)on3)s2)c1 [Compound O8]
Binding Assay: FLT3(JMminus) (FLT3): + + + +
Cell Assay: CS0001:IC50 (MV4,11 cells): + + +
Cell Assay: CS0002:IC50 (CS0002): + +

SMILES: CC(C)c1cc(NC(=O)Nc2ccc(NC(=O)C3CCN(c4ncc(C(F)(F)F)cc4Cl)CC3)cc2)no1 [Compound N59]
Binding Assay: FLT3(DKIN) (FLT3): + + +
Cell Assay: CS0001:IC50 (MV4,11 cells): + + + +
IC50 (CS0002): > 10 µM

SMILES: CC(C)(C)c1cc(NC(=O)Nc2ccc(C(=O)/C=C/c3ccncc3)cc2)no1
Binding Assay: FLT3(JMminus) (FLT3): + + + +
Cell Assay: CS0001:IC50 (MV4,11 cells): + + +
IC50 (CS0002): > 10 µM

SMILES: CC(C)(C)c1cnc(CSc2cnc(NC(=O)Nc3ccon3)s2)o1
Binding Assay: FLT3(JMminus) (FLT3): + + +
Cell Assay: CS0001:IC50 (MV4,11 cells): + + +
Cell Assay: CS0002:IC50 (CS0002): + +

SMILES: Cn1nc(C(F)(F)F)c(C(=O)Nc2ccc(NC(=O)Nc3cc(C(C)(C)C)on3)cc2)c1Cl [Compound N68]
Binding Assay: FLT3(DKIN) (FLT3): + + + +
Cell Assay: CS0001:IC50 (MV4,11 cells): + + +
Cell Assay: CS0002:IC50 (CS0002): + + +

SMILES: CC(C)(C)c1cc(NC(=O)Nc2ccc(NC(=O)C3=Cc4cc(F)cc(S(C)(=O)=O)c4C3)cc2)no1 [Compound N58]
Binding Assay: FLT3(DKIN) (FLT3): + + +
Cell Assay: CS0001:IC50 (MV4,11 cells): + + +

SMILES: CC(C)(C)c1cc(NC(=O)Nc2ccc(OCCN3CCSCC3)cc2)no1 [Compound G53]
Binding Assay: FLT3(DKIN) (FLT3): + + +
Cell Assay: CS0001:IC50 (MV4,11 cells): + +

SMILES: CC(C)(C)c1cc(NC(=O)Nc2ccc(C(=O)Nc3ccc(F)cc3F)cc2)no1 [Compound N153]
Binding Assay: FLT3(DKIN) (FLT3): + + + +
Cell Assay: CS0001:IC50 (MV4,11 cells): + + +

SMILES: CC(C)(C)OC(=O)Nc1ccc(NC(=O)Nc2cc(C(C)(C)C)on2)cc1 [Compound N101]
Binding Assay: FLT3(DKIN) (FLT3): + + + +
Cell Assay: CS0001:IC50 (MV4,11 cells): + + +

SMILES: CC(C)(C)c1cc(NC(=O)Nc2ccc(OCc3ccccc3C(F)(F)F)cc2)no1 [Compound G4]
Binding Assay: FLT3(DKIN) (FLT3): + + +
Cell Assay: CS0001:IC50 (MV4,11 cells): + +

SMILES: CC(C)(C)c1cc(NC(=O)Nc2ccc(OCc3ccc(C(=O)c4ccccc4)cc3)cc2)no1 [Compound G9]
Binding Assay: FLT3(DKIN) (FLT3): + + + +
Cell Assay: CS0001:IC50 (MV4,11 cells): + + +

SMILES: COc1cc(OC)nc(Oc2cccnc2C(=O)Nc2ccc(NC(=O)Nc3cc(C(C)(C)C)on3)cc2)n1 [Compound N56]
Binding Assay: FLT3(DKIN) (FLT3): + + + +
Cell Assay: CS0001:IC50 (MV4,11 cells): + + +

Second part, the compound after the results:

Binding Assay: FLT3(DKIN) (FLT3): + + + +
IC50 (CS0002): > 10 µM
SMILES: CC(C)(C)c1cc(NC(=O)Nc2ccc(NC(=O)c3cc([N+](=O)[O-])ccn3)cc2)no1 [Compound N7]

Binding Assay: FLT3(JMminus) (FLT3): + + + +
Cell Assay: CS0001:IC50 (MV4,11 cells): + + + +
Cell Assay: CS0002:IC50 (CS0002): + +
SMILES: CCOC(=O)c1cccc(C(=O)Nc2ccc(NC(=O)Nc3cc(C(C)(C)C)on3)cc2)n1 [Compound N164]

Binding Assay: FLT3(DKIN) (FLT3): + + + +
Cell Assay: CS0001:IC50 (MV4,11 cells): + + +
Cell Assay: CS0002:IC50 (CS0002): + + +
SMILES: COc1cc(OC)nc(Sc2ccccc2C(=O)Nc2ccc(NC(=O)Nc3cc(C(C)(C)C)on3)cc2)n1 [Compound N47]

Binding Assay: FLT3(DKIN) (FLT3): + + + +
Cell Assay: CS0001:IC50 (MV4,11 cells): + + + +
Cell Assay: CS0002:IC50 (CS0002): + + +
SMILES: COc1cc(OC)nc(Nc2cccc(C(=O)Nc3ccc(NC(=O)Nc4cc(C(C)(C)C)on4)cc3)c2)n1 [Compound N49]

Binding Assay: FLT3(JMminus) (FLT3): + + +
Cell Assay: CS0001:IC50 (MV4,11 cells): + + +
Cell Assay: CS0002:IC50 (CS0002): + +
SMILES: CC(C)(C)c1cc(NC(=O)Nc2ccc(NC(=O)c3nocc3C(C)(C)C)cc2)no1 [Compound N82]

Binding Assay: FLT3(JMminus) (FLT3): + + + +
Cell Assay: CS0001:IC50 (MV4,11 cells): + + + +
Cell Assay: CS0002:IC50 (CS0002): + +
SMILES: Cc1nc(-c2ccc(Cl)cc2)sc1C(=O)Nc1ccc(NC(=O)Nc2cc(C(C)(C)C)on2)cc1 [Compound N184]

Binding Assay: FLT3(JMminus) (FLT3): + + + +
IC50 (MV4,11 cells; Homo sapiens, MV4-11): > 10 µM
Cell Assay: CS0002:IC50 (CS0002): + +
SMILES: CC(C)c1sc(Cl)nc1C(=O)Nc1ccc(NC(=O)Nc2cc(C(C)(C)C)on2)cc1 [Compound N75]

Binding Assay: FLT3(DKIN) (FLT3): + + + +
Cell Assay: CS0001:IC50 (MV4,11 cells): + + + +
Cell Assay: CS0002:IC50 (CS0002): + +
SMILES: CC(C)(C)c1cc(NC(=O)Nc2ccc(NC(=O)c3ccccc3Cl)cc2)no1 [Compound N23]

Binding Assay: FLT3(DKIN) (FLT3): + + + +
Cell Assay: CS0001:IC50 (MV4,11 cells): + + + +
Cell Assay: CS0002:IC50 (CS0002): + +
SMILES: CC(C)(C)c1cc(NC(=O)Nc2ccc(NC(=O)c3cc4cc(Br)ccc4s3)cc2)no1 [Compound N17]

Binding Assay: FLT3(JMminus) (FLT3): + + + +
Cell Assay: CS0001:IC50 (MV4,11 cells): + + + +
Cell Assay: CS0002:IC50 (CS0002): + +
SMILES: Cc1nc(-c2ccccc2)sc1C(=O)Nc1ccc(NC(=O)Nc2cc(C(C)(C)C)on2)cc1 [Compound N181]

Binding Assay: FLT3(DKIN) (FLT3): + + + +
Cell Assay: CS0001:IC50 (MV4,11 cells): + +
IC50 (CS0002): > 10 µM
SMILES: CC(C)(C)c1cc(NC(=O)Nc2ccc(NC(=O)c3nccnc3C(N)=O)cc2)no1 [Compound N138]

Binding Assay: FLT3(JMminus) (FLT3): + + +
Cell Assay: CS0001:IC50 (MV4,11 cells): + +
SMILES: CC(C)c1nnsc1C(=O)Nc1ccc(NC(=O)Nc2cc(C(C)(C)C)on2)cc1 [Compound N182]

Binding Assay: FLT3(DKIN) (FLT3): + + + +
Cell Assay: CS0001:IC50 (MV4,11 cells): + + +
SMILES: CC(C)(C)c1cc(NC(=O)Nc2ccc(NC(=O)c3ccnc4ccccc34)cc2)no1 [Compound N141]

Binding Assay: FLT3(DKIN) (FLT3): + + + +
Binding Assay: FLT3(JMminus) (FLT3): + + +
Cell Assay: CS0001:IC50 (MV4,11 cells): + + and + + +
SMILES: CC(C)(C)c1cc(NC(=O)Nc2ccc(NC(=O)c3cc(Cl)nnc3Cl)cc2)no1 [Compound N174]

Binding Assay: FLT3(DKIN) (FLT3): + + + +
Cell Assay: CS0001:IC50 (MV4,11 cells): + + +
SMILES: CC(C)(C)c1cc(NC(=O)Nc2ccc(NC(=O)c3ccc4cccnc4n3)cc2)no1 [Compound N144]

Binding Assay: FLT3(DKIN) (FLT3): + + + +
Cell Assay: CS0001:IC50 (MV4,11 cells): + + +
SMILES: CC(C)(C)c1cc(NC(=O)Nc2ccc(C(=O)Nc3ccc(Cl)cc3)cc2)no1 [Compound N156]

Binding Assay: FLT3(DKIN) (FLT3): + +
Cell Assay: CS0001:IC50 (MV4,11 cells): + +
SMILES: CC(C)(C)c1cc(NC(=O)Nc2ccc(NC(=O)c3c[nH]c(=O)nc3-c3ccncc3)cc2)no1 [Compound N19]

Binding Assay: FLT3(DKIN) (FLT3): + + + +
Cell Assay: CS0001:IC50 (MV4,11 cells): + + +
SMILES: Cc1ccc(-c2cc(C(=O)Nc3ccc(NC(=O)Nc4cc(C(C)(C)C)on4)cc3)c(C)o2)cc1 [Compound N120]

Binding Assay: FLT3(DKIN) (FLT3): + + + +
Cell Assay: CS0001:IC50 (MV4,11 cells): + + +
SMILES: CC(C)(C)c1cc(NC(=O)Nc2ccc(NC(=O)c3cnn(-c4cccc(Cl)c4)c3Br)cc2)no1 [Compound N45]

Binding Assay: FLT3(DKIN) (FLT3): + + + +
Cell Assay: CS0001:IC50 (MV4,11 cells): + + +
SMILES: CC(=O)c1c[nH]c(C(=O)Nc2ccc(NC(=O)Nc3cc(C(C)(C)C)on3)cc2)c1 [Compound N43]

Binding Assay: FLT3(JMminus) (FLT3): + + +
Cell Assay: CS0001:IC50 (MV4,11 cells): + +
SMILES: CC(C)(C)c1cc(NC(=O)Nc2ccc(NC(=O)c3nnsc3Sc3ccc(Cl)cc3)cc2)no1 [Compound N71]

Binding Assay: FLT3(DKIN) (FLT3): + + +
Cell Assay: CS0001:IC50 (MV4,11 cells): + +
SMILES: Cc1nc(C(=O)Nc2ccc(NC(=O)Nc3cc(C(C)(C)C)on3)cc2)nn1-c1cc(Cl)cc(Cl)c1 [Compound N15]

Binding Assay: FLT3(DKIN) (FLT3): + + +
Cell Assay: CS0001:IC50 (MV4,11 cells): + +
SMILES: Cc1cc(C)c(C(=O)Nc2ccc(NC(=O)Nc3cc(C(C)(C)C)on3)cc2)c(C)c1 [Compound N31]

Binding Assay: FLT3(DKIN) (FLT3): + + + +
Cell Assay: CS0001:IC50 (MV4,11 cells): + + + +
SMILES: CC(C)(C)c1cc(NC(=O)Nc2ccc(NC(=O)CCc3ccccc3)cc2)no1 [Compound N96]
